In article PMC10343475, “Systematic Modification of the Substitution Pattern of the 7-Hydroxy-5-oxopyrazolo[4,3-b]pyridine-6-carboxamide Scaffold Enabled the Discovery of New Ligands with High Affinity and Selectivity for the Cannabinoid Type 2 Receptor” (Molecules, 2023):
Where “and” joins values, the source holds several entries; their conditions need not be identical. Identical values can stand only once.

How the values were obtained:
[1] = molecular target: human recombinant CB1 receptor (Homo sapiens, UniProt P21554); test: Competition binding assay, displacement of [3H]-CP-55,940, CB1R; conditions: for Ki: membranes from HEK cells, [3H]CP-55,940, mean ± SD, at least three experiments in duplicate, read-out: CB1R Ki
Protocol: (§1) Binding at equilibrium was performed as previously reported. […] All compounds were tested following the procedure described by the manufacturer (Perkin Elmer, Italy). […] Ki values were calculated by applying the Cheng–Prusoff equation to the IC50 values (obtained by GraphPad) for the displacement of the bound radioligand by increasing concentrations of the test compound.

human CB2 receptor [2] = molecular target: T1, human CB2 receptor (Homo sapiens, UniProt P34972); test: cAMP Hunter functional assay in NKH-477-stimulated CHO-K1 cells overexpressing CB2R; conditions: agonist mode / antagonist mode with JWH-133 4 µM challenge
human CB2 receptor [3] = molecular target: T1, human CB2 receptor; test: Competition binding assay, displacement of [3H]-CP-55,940, CB2R; parameters: logKiCB2 (nM) Exp.: unit not given here
Protocol: as §1

human CB2 receptor [4] = molecular target: T1, human CB2 receptor; conditions: Figure 1, earlier ligands of the group; cited from earlier work
[5] = Dissolution of 63-salts in 0.9% NaCl solution (LC-MS/MS); assay type: physicochemical
Excerpt: [63^−] = 9.81 × 10^−7 mol^2/L^2. […] However, starting from the cesium salt, the concentration of drug dissolved in the physiological solution maintained high values for at least one hour (around 50 × 10^−6 mol/L, with a peak higher than 100 × 10^−6 mol/L) and, for a further two hours, these values were higher than those obtained with the sodium salt. From this, it can be deduced that the 63-cesium salt would be very suitable for the extemporaneous preparation of injectable solutions in the presence of high concentrations of sodium ions.
An excess amount (~4 to 5 mg) of each salt of compound 63 was added to 5 mL of a 0.9% NaCl solution, kept under constant agitation, and thermostated at room temperature (21 ± 2 °C). At fixed time points, an aliquot was withdrawn from the solution, and centrifuged (3000 g, 10 min, RT) to separate undissolved compound and the supernatant, after dilution with MeOH, was analyzed by LC-MS/MS. An Accela UHPLC system coupled with a TSQ Quantum Access Max triple quad mass spectrometer (Thermo Fisher, Waltham, MA, USA), was employed to quantify dissolved 63 over time. UHPLC separation occurred by gradient elution, employing a Synergy Fusion C18 80Å RP-column (2.0 × 100 mm, 4 µm; Phenomenex, Bologna, Italy). Mobile phases A and B were acetonitrile and water, both with 0.1% v/v formic acid added. The following elution conditions were employed: linear gradient from 60 to 95%A in 5 min; 95% A between 5 and 8 min, returning to 60% A in 0.5 min with 2.5 min reconditioning time. Total run time: 11 min. The flow rate was 0.35 mL/min and injection volume was 10 µL. Heated electrospray (H-ESI) ion source voltage was set at 4.0 KV; capillary temperature at 270 °C. Nitrogen served both as sheath and auxiliary gas at 35 psi and 15 psi, respectively. Argon at a pressure of 1.5 mtorr was employed as collision gas. H-ESI ion source operated in positive ion mode (ESI+) and acquisition occurred in multiple reaction monitoring (MRM). Tube lens voltages (TL) and collision energies (CE) for each parent-product ion transition were optimized by flow injection analysis of 5 µM solutions of each standard in MeOH. Compound 63: m/z = 399.2 [M+H]^+ → m/z = 135.1, 107.1, 93.1 (TL = 98 V; CE = 20, 33, 37 eV, respectively). Its 1-hydroxy derivative, compound 4-(1-butyl)-4,5-dihydro-7-hydroxy-N-(1-hydroxyadamantan-3-yl)-2-methyl-5-oxo-2H-pyrazolo[4,3-b]pyridine-6-carboxamide, was employed as Internal Standard: m/z = 415.2 [M+H]^+ → m/z = 266.1, 248.1 (TL = 99 V; CE = 14, 31 eV). Calibration curves were prepared in MeOH in the 1000–10 nM concentration range starting and coefficients of determination of regression models were >0.99. Xcalibur software version 2.2 (Thermo Fisher Scientific, Inc., Waltham, MA, USA) was employed for both data acquisition and processing. […]

[6] = CB2R Ki, membranes from HEK cells, [3H]CP-55,940, mean ± SD, at least three experiments in duplicate

T1 sequence (P34972 whole entry): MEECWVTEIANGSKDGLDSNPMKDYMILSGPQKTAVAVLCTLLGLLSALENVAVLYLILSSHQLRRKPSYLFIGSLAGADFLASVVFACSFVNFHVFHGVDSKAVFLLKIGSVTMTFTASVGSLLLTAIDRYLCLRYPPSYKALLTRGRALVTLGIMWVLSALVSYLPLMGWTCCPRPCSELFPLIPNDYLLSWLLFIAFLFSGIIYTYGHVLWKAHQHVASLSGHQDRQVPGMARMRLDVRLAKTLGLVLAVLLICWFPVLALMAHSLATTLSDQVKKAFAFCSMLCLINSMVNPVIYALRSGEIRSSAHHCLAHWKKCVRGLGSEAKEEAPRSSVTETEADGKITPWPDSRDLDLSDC
Sequence of human recombinant CB1 receptor (P21554 whole entry): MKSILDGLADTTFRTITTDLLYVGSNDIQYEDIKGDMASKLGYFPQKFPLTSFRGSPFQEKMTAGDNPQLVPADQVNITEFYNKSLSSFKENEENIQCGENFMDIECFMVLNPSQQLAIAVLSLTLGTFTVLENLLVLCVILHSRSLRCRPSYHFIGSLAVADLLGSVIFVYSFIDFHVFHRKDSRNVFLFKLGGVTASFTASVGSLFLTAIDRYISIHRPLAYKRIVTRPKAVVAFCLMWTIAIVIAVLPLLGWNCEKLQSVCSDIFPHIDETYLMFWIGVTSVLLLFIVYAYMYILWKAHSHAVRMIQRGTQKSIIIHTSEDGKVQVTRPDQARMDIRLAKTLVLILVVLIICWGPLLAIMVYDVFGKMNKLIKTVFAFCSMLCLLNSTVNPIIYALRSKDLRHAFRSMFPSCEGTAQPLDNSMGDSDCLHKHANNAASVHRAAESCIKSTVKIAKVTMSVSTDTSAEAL

| Structure (SMILES) | Ki [1] [nM] | Functional behavior at CB2R (human CB2 receptor [2]) | melting point [°C] | Ki (human CB2 receptor [3]; [6]) | other results |
| --- | --- | --- | --- | --- | --- |
| CCCCCn1c(=O)c(C(=O)NC23CC4CC(CC(C4)C2)C3)c(O)c2nn(C)c(C)c21 [Compound 55, N-(Adamantan-1-yl)-7-hydroxy-2,3-dimethyl-5-oxo-4-(1-pentyl)-4,5-dihydro-2H-pyrazolo[4,3-b]pyridine-6-carboxamide] | > 10000 | antagonist/inverse agonist behavior | 67 | < 20 nM and 2.11 nM | CB1 receptor activity in words [1]: not active at all; logKiCB2 (nM) Exp. (human CB2 receptor [3]; log of experimental Ki): 0.32 |
| Cn1cc2c(n1)c(O)c(C(=O)NC13CC4CC(CC(C4)C1)C3)c(=O)n2Cc1ccccc1 [Compound 26, N-(Adamantan-1-yl)-4-benzyl-7-hydroxy-2-methyl-5-oxo-4,5-dihydro-2H-pyrazolo[4,3-b]pyridine-6-carboxamide] | – | antagonist/inverse agonist behavior | 180 to 183 | < 20 nM and 0.48 nM | – |
| CCCCn1c(=O)c(C(=O)NC2CCCCCCC2)c(O)c2nn(C)cc21 [Compound 15, 4-(1-Butyl)-N-cyclooctyl-7-hydroxy-2-methyl-5-oxo-4,5-dihydro-2H-pyrazolo[4,3-b]pyridine-6-carboxamide] | > 10000 | antagonist/inverse agonist behavior | – | < 20 nM and 9.03 nM | SI (selectivity index for CB2R, Ki(CB1R)/Ki(CB2R)) (human CB2 receptor [3]): >1107; Ki (human CB2 receptor [3]; logKiCB2 (nM) Exp., log of experimental Ki): 14.5 nM |
| CCCCCn1c(=O)c(C(=O)NC23CC4CC(CC(C4)C2)C3)c(O)c2nn(C)cc21 [Compound 3, reference compound] | – | – | – | – | Selectivity Index (human CB2 receptor [4]): 167 |
| CCCCn1c(=O)c(C(=O)NC23CC4CC(CC(C4)C2)C3)c(O)c2nn(C)cc21.[Na] [63-sodium salt, N-(Adamantan-1-yl)-4-(1-butyl)-7-hydroxy-2-methyl-5-oxo-4,5-dihydro-2H-pyrazolo[4,3-b]pyridine-6-carboxamide Sodium Salt] | – | – | – | – | Concentration of dissolved 63, average over time points ([5]; excess salt in 0.9% NaCl, room temperature): 6.37 µM |
| CCCCn1c(=O)c(C(=O)NC23CC4CC(CC(C4)C2)C3)c(O)c2nn(C)cc21.[Cs] [63-cesium salt, N-(Adamantan-1-yl)-4-(1-butyl)-7-hydroxy-2-methyl-5-oxo-4,5-dihydro-2H-pyrazolo[4,3-b]pyridine-6-carboxamide Cesium Salt] | – | – | – | – | Concentration of dissolved 63 maintained for at least one hour ([5]; 0.9% NaCl): around 50 × 10^−6 mol/L; Peak concentration of dissolved 63 ([5]; 0.9% NaCl): higher than 100 × 10^−6 mol/L; Time to decrease to the value consistent with the Ks of the sodium salt ([5]; 0.9% NaCl): 200 min |
